Measured values taken from PMC12751141, “Disrupting α-Synuclein–ClpP interaction restores mitochondrial function and attenuates neuropathology in Parkinson’s disease models” (Molecular Neurodegeneration, 2025).

Columns and labels:
αSyn monomer = αSyn monomer ELISA, Tet-inducible αSyn SH-SY5Y cells; assay type: cell-based, human; conditions: vs TAT
Method: After one day incubation with doxycycline (1µM), αSyn tet-on inducible expression SHSY5Y cells were treated with TAT or CS2 peptides at 10 µM for another two days. The level of αSyn monomer released into culture medium was measured using LEGEND MAX human αSyn ELISA kit (448607, Biolegend). The level of extracellular and intracellular αSyn oligomers was measured using human alpha synuclein oligomer ELISA kit (MBS730762, Mybioresource).

SH-SY5Y cells = experiment: Mitochondrial membrane potential (TMRM) in SH-SY5Y cells; assay type: cell-based; conditions: SH-SY5Y expressing Venus-αSyn, n = 8
Method: Cells cultured on coverslips or 24-well plates were washed with DPBS and then incubated with 0.25 µM Tetramethylrhodamine, methyl ester (TMRM) (Invitrogen, T668), for 20 min at 37 °C. For cells cultured on coverslips, the images were visualized by microscope, and quantification of images was then carried out using NIH Fiji ImageJ software. At least 100 cells per group were counted in the analysis.

mThy1-hSNCA mice = experiment: Rotarod test in mThy1-hSNCA mice; assay type: in vivo, mouse; conditions: 3 mg/kg/day s.c.; age of 10-month; n = 13–15 mice/group; vs TAT
Method: C57BL/6 N-Tg (Thy1-SNCA)15Mjff/J (JAX: 017682) breeders (C57Bl/6NJ genetic background) were purchased from Jackson Laboratories. The mice were mated, bred, and genotyped in the animal facility of Case Western Reserve University. All mice were maintained at a 12-hour light/dark cycle (on 6 am, off 6 pm). All randomization and peptide treatments in mThy1-hSNCA mice were prepared by an experimenter not associated with the behavioral and neuropathology analysis. Only male mice were used in the study. mThy1-hSNCA transgenic mice and their age-matched WT littermates were implanted with a 28-day subcutaneous osmotic pump (Alzet, Cupertino CA, Model 2004) containing either TAT control peptide or CS2 peptide, which delivered the peptides at indicated rate (1 or 3 or 10 mg/kg/day). The pump was replaced once every four weeks. All mice were sacrificed at age of 10-month for neuropathology assessment.
Mice were trained for the accelerating test on Day 1–3. On Day 5, motor coordination was assessed in TAT or CS2 treated mThy1-hSNCA transgenic mice and their age-matched wild-type littermates at age of 10-month, by measuring latency on a rotarod in an accelerated program for 300 s. Body weights of mThy1-hSNCA mice and wild-type littermates were recorded throughout the study period.
Fig. 7 CS2 treatment is protective in mThy1-hSNCA mouse model of PD. […]

[1] = system: αSyn-PFF-inoculated primary cortical neurons; experiment: Immunofluorescence / western blot in αSyn-PFF-inoculated primary cortical neurons; assay type: cell-based, mouse; conditions: 1 µM daily
Method: Primary cortical neurons were isolated from normal E18 mouse cortex (sex undetermined) and cultured using complete culturing kit (cat#: KTC57ECX, TransnetYX Tissue). Briefly, 100,000 cells were seeded on poly-D-lysine coated glass coverslips (PDL15mm, TransnetYX Tissue) and cultured in NbActiv1 medium (NB1, TransnetYX Tissue). Neurons were treated with sonicated human α-Syn-PFF (SPR-322, StressMarq Biosciences) starting on post-seeding Day 5 till Day 14. Starting from post-seeding Day 9, TAT or CS2 peptide was added daily at 1µM. Neurons were fixed on Day 14 and subjected for experiments.
Cells were grown on coverslips, fixed with 4% paraformaldehyde for 20 min at room temperature, permeabilized with 0.1% Triton X-100 in PBS, and blocked with 2% normal goat serum. The cells were incubated with the indicated primary antibodies overnight at 4℃. After washing with PBS, the cells were incubated with Alexa Fluor 488/568 or 405/568 secondary antibody (1:500; Thermo Fisher Scientific) for 2 h at room temperature. The nuclei were counterstained with DAPI (1:10000; Sigma-Aldrich). Images of the staining were acquired using a Fluoview FV3000 confocal microscope (Olympus).
Fig. 5 CS2 treatment mitigates αSyn PFF induced neurotoxicity. (A) Representative images of ClpP, αSyn (Syn204; recognize human αSyn only) and NeuN staining in αSyn PFF-inoculated mouse primary cortical neurons that were pre-treated with TAT or CS2 peptide (scale bar = 30 μm). Quantification of ClpP and αSyn co-localization (n = 12–13 neurons/group, two-tailed Student’s t test, data are mean ± SEM). (B-C) Representative images of ClpP, αSyn (Syn204) and NeuN staining in αSyn PFF-inoculated mouse primary cortical neurons that were pre-treated with TAT or CS2 peptide (scale bar = 30 μm). Neurons were fixed in 4% PFA/4% sucrose/1%Triton-X100 to extract the soluble factions before immunostaining. […] (D-E) Representative images of β-tubulin (Tuj1) and pS129-αSyn (pS129) staining in αSyn PFF-inoculated mouse primary cortical neurons that were pre-treated with TAT or CS2 peptide (scale bar = 30 μm). […] (F-H) Representative images of PSD95, Synapsin1 (SYN1) and pS129 staining in αSyn PFF-inoculated mouse primary cortical neurons that were pre-treated with TAT or CS2 peptide (scale bar = 30 μm).
(A) Experimental schematic of TAT or CS2 peptide treatment in mouse primary cortical neurons inoculated with human αSyn PFF: Primary cortical neurons were isolated from E18 mouse cortex (see methods) and plated on coverslips (Day -5); neurons were treated with human αSyn PFF on Day 0 at 50 ng/ml; On Day 4, TAT or CS2 (1µM) was added daily till Day 9.
(B) Total protein lysates were harvested from primary neurons inoculated with αSyn-PFF after treatment with TAT or PBS, and subjected for western blot. Shown are the representative blots.

CC(C)[C@H](NC(=O)CNC(=O)CNC(=O)CCCCCNC(=O)[C@H](CCCNC(=N)N)NC(=O)[C@H](CCCNC(=N)N)NC(=O)[C@H](CCCNC(=N)N)NC(=O)[C@H](CCC(N)=O)NC(=O)[C@H](CCCNC(=N)N)NC(=O)[C@H](CCCNC(=N)N)NC(=O)[C@H](CCCCN)NC(=O)[C@H](CCCCN)NC(=O)[C@H](CCCNC(=N)N)NC(=O)CNC(=O)[C@@H](N)Cc1ccc(O)cc1)C(=O)N[C@H](C(=O)N[C@H](C(=O)N[C@@H](C)C(=O)O)[C@@H](C)O)C(C)C [CS2, TAT-C6-GGVVTA]
extracellular αSyn monomer (αSyn monomer; 10 µM, two days, ELISA, n = 4): decreased levels
intracellular αSyn monomer (αSyn monomer): decreased levels
mitochondrial membrane potential (SH-SY5Y cells): rescued upon CS2 treatment
motor coordination on rotarod (latency to fall) (mThy1-hSNCA mice): enhanced motor coordination
ClpP expression, PFF neurons ([1]; five days): rescued the expression of ClpP
ClpP / αSyn co-localization ([1]; five days, n = 12–13 neurons/group): reduced this colocalization
insoluble αSyn, PFF neurons ([1]; detergent-insoluble, n = 20-30 neurons per group): significantly reduced the insoluble ClpP and αSyn signal
insoluble ClpP ([1]; detergent-insoluble, n > 30 neurons/group): significantly reduced the insoluble ClpP and αSyn signal
pS129-αSyn level, PFF neurons ([1]; n = 3–6): markedly reduced the level of pS129-αSyn
Synapsin1/PSD95 colocalization ([1]; n > 30 areas): substantially restored Synapsin1/PSD95 colocalization
